Source: publication PMC8645223, “Development of a simple and miniaturized sandwich-like fluorescence polarization assay for rapid screening of SARS-CoV-2 main protease inhibitors” (Cell & Bioscience, 2021)

What was measured:
[1] = target: T1, SARS-CoV-2 Mpro (Severe acute respiratory syndrome coronavirus 2, UniProt P0DTD1); assay: sandwich-like FP screening assay; assay type: biochemical
[2] = target: T1, SARS-CoV-2 Mpro; assay: SPR binding assay
Method: The binding affinity between dieckol and Mpro was measured using a real-time SPR spectroscopy instrument (Reichert 2SPR, Buffalo, USA). In all, 20 µL Mpro (1.6 mg/mL) in 10 mM NaAc buffer (pH5.5) was immobilized to a surface activated CM5 gold biosensor (Reichert Inc., New York, USA), and the active sites were quenched with 1 M ethanolamine buffer (pH8.0). After washing the sample loop, an indicated concentration of dieckol (0, 6.25, 12.5, 25 µM) was separately injected on the surface of the Mpro-captured biosensor at RT. The binding time of the analyte to the ligand was 90 s, and the dissociation kinetic was recorded during 330 s. Finally, the real RIU was continuously monitored, and the RIU can be related to arbitrary resonance unit (RU) as 1 µRIU = 0.733 RU. The KD value was calculated using the analyte binding kinetic curve plotted by Trace Drawer software (Ridgeview Instruments, Sweden).

[3] = target: T1, SARS-CoV-2 Mpro; assay: FRET assay, inhibition of Mpro proteolytic activity; assay type: biochemical; conditions: for IC50: IC50, FRET assay
Method: As described previously, the inhibitory activity of dieckol against Mpro was preformed using a FRET assay. In brief, 50 µL sample of Mpro (0.4 µM) was preincubated with the indicated concentrations of dieckol (initial concentration: 100 µM, 8 two-fold dilutions) at RT for 35 min in FP assay buffer, and the reaction was initiated by adding 5 µM FRET substrate. DMSO and GC-376 (1 µM) was used as a negative and positive control, respectively. The RFU change was separately measured as described previously every second for 3 min by a microplate reader. The VI was calculated by a slope of the linear regression in the first 30 s, and the IC50 value was calculated using the following equation:3 Dieckolinhibition(%)=1-VIDieckol/VIDMSO×100%
To clarify the inhibitory mechanism of dieckol, the fixed concentrations of dieckol (0, 2, 4, 6 µM) were separately added to 50 µL sample of Mpro (0.4 µM), and the mixture was preincubated for 10 min at RT. After adding 5 µM FRET substrate, the VI was measured using a FRET assay. The inhibition mechanism of dieckol was inferred using the LB plot and a Ki value was generated by its secondary plot.

[4] = system: COc1ccc2c(CC(=O)N[C@@H](C)C(=O)N[C@H](C(=O)N[C@@H](CC(C)C)C(=O)N[C@@H](CCC(N)=O)C(=O)N[C@@H](CO)C(=O)NCC(=O)N[C@@H](Cc3ccccc3)C(=O)N[C@@H](CCCNC(=N)N)C(=O)N[C@@H](CCCCNc3ccc([N+](=O)[O-])cc3[N+](=O)[O-])C(=O)N[C@@H](CCCCN)C(N)=O)C(C)C)cc(=O)oc2c1; assay: purified protein, by the assay type; conditions: pH 8.0

Molecule	IC50 ([1]; absence of DTT) [µM]	IC50 ([1]; presence of 1 mM DTT) [µM]	Kd [2] [µM]	kd ([2]; SPR dissociation rate) [s⁻¹]	Ki [3] [µM]	IC50 ([3]; absence of DTT) [µM]	IC50 ([3]; presence of 1 mM DTT) [µM]	inhibition mechanism ([3]; Lineweaver-Burk plot, same Vmax, varying Km)	Km [4] [µM]
Oc1cc(O)cc(Oc2c(O)cc(O)c3c2Oc2c(O)cc(Oc4c(O)cc(Oc5c(O)cc(O)c6c5Oc5c(O)cc(O)cc5O6)cc4O)cc2O3)c1 [dieckol]	2.9 ± 0.2	4.5 ± 0.4	0.22	0.000226	3.3	1.8 ± 0.2	3.8 ± 0.3	competitive inhibitor	
SARS-CoV-2 Mpro (Severe acute respiratory syndrome coronavirus 2)									19.78
